Measured values from US20150158914A1, “PEPTIDES, CONSTRUCTS AND USES THEREFOR” (priority 2010, published 2015).
Entries after “also recorded” stand apart in the source; their conditions may differ. Ends that are not written are not given here. * marks the point of attachment. FITC = O=C1OC2(c3ccc(O)cc3Oc3cc(O)ccc32)c2ccc(NC(=S)*)cc21

Assays:
[1] = target: T1, X-protein N-terminal peptide 1-50 (Hepatitis B virus genotype C subtype adr, UniProt Q81163, DEL44-44/P38S/S41A/S42F/V5L); assay: Peptide binding assay: FITC-peptides on peptide 1-50-coated plates; conditions: FITC-peptide at 10, 20, 40 μg/ml, 30 min
T1 construct: The parent peptide containing aa 1-50 conjugated N-terminally to a biotin tag; purchased; host or cells: chemical synthesis
Method: Qligomerization peptides were received in powdered form, and were weighed and diluted in a sterile 10% DMSO solution to make a 10 mg/ml stock solution. The wells of a Reactibind neutravidin-coated 96 well plate (Thermoscientific cat #15507) were thrice washed with 200 μl of plate washing buffer. Peptide 1-50, which contains a biotin tag, was diluted to 10 μg/ml in wash buffer and 100 μl of the solution was placed into each well being used. The plate was incubated at room temperature for 2 h, and the wells washed thrice with 200 μl of wash buffer. Truncated fluorescent variants of peptide 1-50 at 40 μg/ml, 20 μg/ml, and 10 μg/ml were added to the wells in triplicate, and the plates incubated at room temperature for 30 min. The wells were then washed thrice with 200 μl of wash buffer under low light conditions, and the plate read on a Biotek fluorescent plate reader at an excitation wavelength of 490 nm and an emission wavelength of 520 nm.
A ligand-binding assay was performed using streptavidin-coated plates in order to define the minimum peptide motif needed for dimerization of the X-protein. In this scenario the X-protein monomer serves as its own ligand. […] A series of short peptides from the region encoding aa 1-50 were synthesized. The parent peptide containing aa 1-50 conjugated N-terminally to a biotin tag was added to the streptavidin coated plates. […] Non-biotinylated peptides encoding aa 1-20, 16-35, 21-40 and 34-53 were added at 10, 20, and 40 μg/ml to the wells coated with peptide aa 1-50. The smaller peptides were each conjugated to a FITC tag for detection using a fluorescent plate reader. […] Binding performed with lesser concentrations of the peptides was not significant. Even smaller peptides encompassing that region 16-35 were made to determine whether the aa 16-35 was the minimum peptide motif needed for X-protein dimerization. These peptides synthesized, namely aa 16-26, 16-24, and 16-22 were analyzed using the same peptide binding assay. […] Thus of the peptides examined, the minimal peptide motif needed for dimerization of the X-protein is the […] peptide 16-35.

HepG2 cells [2] = assay: Assay for cell permeability of X-protein peptides (fluorescence and confocal microscopy); format: cell-based, human; conditions: for uptake by HepG2 cells (cell permeability): FITC-labelled peptide 10 μM, 3 h, medium without FCS; for intracellular distribution (confocal slicing): FITC-labelled peptide, HepG2 cells
Method: (§1) The cells were then incubated overnight at 37° and 5% CO2, and then washed thrice with media without FCS. The X-protein peptide in 250 μl of appropriate media without FCS was added to the cells at a final concentration of 10 μM, and the slides incubated for 3 h at 37° C. and 5% CO2. The cells were washed with PBS, fixed with 4% formaldahyde in PBS for 30 min, and washed thrice with PBS. […] The slides were dried overnight in the dark, and examined by microscopy by using a Nikon E600 fluorescent microscope. Photos were taken using Nikon ACT-1 software. For further examination, slides were then examined by confocal microscopy using a Leica TCS-SP2 confocal microscope.

HepG2 cells [3] = assay: Pathway of peptide entry: pretreatment with cytochalasin D or heparin; format: cell-based, human; conditions: 30 min pretreatment, 10 μM peptide, 3 h; for effect of heparin pretreatment on peptide entry: 2 μg/ml heparin
Method: Cells were plated overnight at 1×10^5 per well in eight chamber slides in complete MEM medium containing 10% FCS. The cells were washed thrice with MEM medium, and pretreated for 30 min with either 10 μm cytochalasin D or 2 μg/ml of heparin in MEM at 37° C. Peptide was then added at a concentration of 10 μM and cells were incubated for 3 h at 37° and 5% CO2. The cells were washed with PBS, fixed with 4% formaldehyde and PBS for 30 min, and a drop of Prolong Gold antifade reagent with DAPI (Invitrogen cat# P36931) was added to each well. The slides were dried overnight in the dark, and examined by microscopy by using a Nikon E600 fluorescent microscope. Photos were taken using Nikon ACT-1 software.
Exactly how cell-permeable peptides pass through the plasma membrane of cells is still not fully understood. […] Actin elongation on the cell surface leads to an extension of the plasma membrane into the extracellular environment. When the plasma membrane fuses back with itself it forms macropinosomes, and in doing so encapsulates and internalizes a large volume of extracellular fluid. Another mechanism is via the binding of peptides to cell surface heparan sulphate proteoglycans, which leads to internalization of the peptide through an endocytic process. HepG2 cells were pretreated with cytochalasin D and heparin, and then incubated with FITC-labelled cell permeable peptides aa 16-22, and aa 16-35 for 3 h to determine whether either of the above two mechanisms mediated cell uptake of the X-protein peptides. Control cells were treated with the X-protein peptides but were not treated with either chemical. Cytochalasin D is an F-actin elongation inhibitor, which inhibits macropinocytosis by inhibiting extension of the plasma membrane. Heparin would be expected to antagonize the binding of the peptides to cell surface heparan sulphate proteoglycans.

Cos-7 kidney cell line = assay: Peptide uptake by other cell lines; format: cell-based, green monkey
Method: as §1
(§2) The X-protein cell-permeable peptide aa 16-22 was tested for its ability to be taken up by other mammalian cell lines including the human C32 melanoma, DU145 prostate carcinoma, TK1 T cell lymphoma, H441 lung carcinoma, Rin-m5f rat pancreatic islet tumor and Cos-1/7 green monkey kidney cell lines. TK1 cells are suspension cells whereas all other cell lines are adherent cells. Cells were incubated with the fluoresceinated X-protein cell-permeable peptide 16-22 for 3 h in medium appropriate for that cell line in the absence of FCS. The HepG2 cell line was used as a positive control. The X-protein peptide was able enter all adherent cell lines regardless of type or source of the cell (FIGS. 22 and 23).

Cos-1 kidney cell line = assay: Peptide uptake by other cell lines; format: cell-based, green monkey
Method: as §1, §2

[4] = system: H441 lung carcinoma cell line; assay: Peptide uptake by other cell lines; format: cell-based, human; conditions: H441, 3 h
Method: as §1, §2

[5] = system: DU145 prostate carcinoma cell line; assay: Peptide uptake by other cell lines; format: cell-based, human; conditions: DU145, 3 h
Method: as §1, §2

C32 melanoma cell line = assay: Peptide uptake by other cell lines; format: cell-based, human; conditions: C32, 3 h
Method: as §1, §2

FITC-Acp-LCLRPVGAESRGRPVSGPFG [Peptide 16-35]
binding to peptide 1-50 (fluorescence) [1]: bound significantly more strongly to peptide 1-50; also recorded: binds to the X-protein N-terminal peptide 1-50
uptake by HepG2 cells (cell permeability) (HepG2 cells [2]; listed as aa 16-35): cell-permeable; also recorded: readily taken up by the cells
intracellular distribution (confocal slicing) (HepG2 cells [2]; listed as aa 16-35): taken up into the cytoplasm and nucleus; also recorded: taken up into the cell cytoplasm, as well as into the nucleus
effect of heparin pretreatment on peptide entry (HepG2 cells [3]; listed as aa 16-35): dependent on heparin binding; also recorded: effectively blocked peptide entry into the cells
effect of cytochalasin D pretreatment on peptide entry (HepG2 cells [3]): no effect on the entry of the peptides into the cell

FITC-LCLRPVG ({FITC}-LCLRPVG) [Peptide 16-22]
binding to peptide 1-50 (fluorescence) [1]: could not match the strong binding shown by the parental peptide 16-35
uptake by HepG2 cells (cell permeability) (HepG2 cells [2]; listed as X-protein cell-permeable peptide 16-22): able to enter
uptake by HepG2 cells (cell permeability) (HepG2 cells [2]; listed as aa 16-22): cell-permeable, being taken up by cells at a level equivalent to that of the parental peptide aa 16-35; also recorded: taken up into the cells
intracellular distribution (confocal slicing) (HepG2 cells [2]; listed as aa 16-22): taken up into both the cytoplasm and nucleus of cells
uptake of the peptide, cells positive (HepG2 cells [2]; HepG2, 3 h, no FCS): > 90 % cells positive
entry into cells (Cos-7 kidney cell line; COS-7, 3 h): taken up less efficiently
uptake of the peptide, cells positive (Cos-7 kidney cell line; Cos-7, 3 h, no FCS): 60 to 70 % cells positive
entry into cells (Cos-1 kidney cell line; COS-1, 3 h): taken up less efficiently
uptake of the peptide, cells positive (Cos-1 kidney cell line; Cos-1, 3 h, no FCS): 60 to 70 % cells positive
effect of heparin pretreatment on peptide entry (HepG2 cells [3]; listed as aa 16-22): dependent on heparin binding; also recorded: effectively blocked peptide entry into the cells
effect of cytochalasin D pretreatment on peptide entry (HepG2 cells [3]): no effect on the entry of the peptides into the cell
entry into cells [4]: taken up less efficiently
uptake of the peptide, cells positive ([4]; no FCS): 60 to 70 % cells positive
entry into cells [5]: able to enter
uptake of the peptide, cells positive ([5]; no FCS): > 90 % cells positive
entry into cells (C32 melanoma cell line): able to enter
uptake of the peptide, cells positive (C32 melanoma cell line; no FCS): > 90 % cells positive
